Measurements as given in EP3603649A1 (priority 2018, dated 2020).

Key:
[1] = target: Hamster recombinant full length PrP (Mesocricetus auratus, UniProt P04273); assay type: biochemical
PrP^res = system: PrP^res; design: species or system C57BL/6 mice; conditions: mouse, in vivo
in vitro = conditions: mouse, cerebellar granule neurons
[2] = system: endothelial cells of the BBB; conditions: cited from earlier work

Hamster recombinant full length PrP, sequence (P04273 23-254 limits assumed): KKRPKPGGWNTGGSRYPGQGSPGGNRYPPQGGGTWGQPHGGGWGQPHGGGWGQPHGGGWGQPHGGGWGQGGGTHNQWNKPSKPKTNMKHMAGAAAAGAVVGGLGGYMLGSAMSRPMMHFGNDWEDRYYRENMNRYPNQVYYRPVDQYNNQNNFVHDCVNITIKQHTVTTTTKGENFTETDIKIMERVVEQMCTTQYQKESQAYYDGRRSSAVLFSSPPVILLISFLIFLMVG

Compound | concentration of maximum effect on lag phase [1] [µM] | lag phase (time for the reaction to start) [1] | PrP^res accumulation in brain (difference between the groups) (PrP^res) | MCC at 72 h (in vitro) [µM] | toxicity on endothelial cells of the BBB [2]
COC[C@H]1O[C@@H]2O[C@H]3[C@H](O)[C@@H](OC)[C@@H](O[C@H]4[C@H](O)[C@@H](OC)[C@@H](O[C@H]5[C@H](O)[C@@H](OC)[C@@H](O[C@H]6[C@H](O)[C@@H](OC)[C@@H](O[C@H]7[C@H](O)[C@@H](OC)[C@@H](O[C@H]8[C@H](O)[C@@H](OC)[C@@H](O[C@H]1[C@H](O)[C@H]2OC)O[C@@H]8COC)O[C@@H]7COC)O[C@@H]6COC)O[C@@H]5COC)O[C@@H]4COC)O[C@@H]3COC [DIMEB, heptakis(2,6-O-dimethyl)beta-cyclodextrin] | 100 | significantly increased | did not show any difference | > 500 | 
trimethyl-β-cyclodextrin [TRIMEB] |  |  |  |  | more toxic than α-cyclodextrin
